ChEMBL document CHEMBL3286379, “Design and synthesis of pyrimidine molecules endowed with thiazolidin-4-one as new anticancer agents” (Eur J Med Chem, 2014)

Key:
Rattus norvegicus [1] = assay: Hepatotoxicity in rat assessed as SGOT level at 0.12 mg/kg, po after 12 days (reference value: 140.23 +/- 1.39 U/mL); assay type: toxicity, organism-based; set-up: dose 0.12 mg/kg, route oral; conditions: in vivo, 288 h
Rattus norvegicus [2] = assay: Hepatotoxicity in rat assessed as SGPT level at 0.12 mg/kg, po after 12 days (reference value: 31.17 +/- 0.39 U/mL); assay type: toxicity, organism-based; set-up: dose 0.12 mg/kg, route oral; conditions: in vivo, 288 h

## O=c1[nH]cc(F)c(=O)[nH]1 [FLUOROURACIL]
Rattus norvegicus [1]
  Activity: 151.21 U/ml
Rattus norvegicus [2]
  Activity: 32.75 U/ml
